In the supplement of paper PMC11451515:

Assays:
Conditions in all cases: 48 h
[1] = tested on: P12-Ichikawa; experiment: AUC of viability dose-response curve (% viability x log10 dose units); higher = less sensitive
In short: (§1)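 In 1536-well plates, leukemia cells adapted to each medium (500 or 1000 cells/well) were exposed for 48 h at 37°C to library compounds in DMSO across 11 threefold doses, 47 μM down to 0.79 nM. Viability was read by CellTiter-Glo One luminescence and normalised per plate to DMSO and cell-free wells. A four-parameter log-logistic fit over log10 doses was integrated by trapezoidal rule. This yielded the area under the curve, with over-full-viability curves scaled and quality-control failures dropped.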

[2] = tested on: NOMO1; experiment: as above
In short: as §1

[3] = tested on: P12-Ichikawa; experiment: cell viability relative to DMSO control; higher = less cytotoxic
In short: (§2)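 Library compounds in DMSO were pin-dosed in an 11-point threefold series (47 μM to 0.79 nM) onto leukemia cells in 1536-well plates (5 μl). Plates held 500 cells/well of NOMO1 or SEM or 1000 cells/well of P12-Ichikawa, each adapted for at least four passages in each medium. Luminescence was read with CellTiter-Glo One after 48 h at 37°C. Viability means the per-plate percentage relative to DMSO wells, using cell-free wells as background.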

[4] = tested on: NOMO1; experiment: as above
In short: as §2

[5] = tested on: SEM cells; experiment: as above
In short: as §2

[6] = tested on: SEM cells; experiment: AUC of viability dose-response curve (% viability x log10 dose units); higher = less sensitive
In short: as §1

COc1ncnc(N[S+](=O)([O-])c2ccc(N)cc2)c1OC
AUC of viability dose-response curve
Conditions | HPLM + 10% dialyzed FBS | RPMI 5 mM glucose + 10% FBS | RPMI 5 mM glucose + 10% dialyzed FBS
[1] | 341 | 320 | 316
[2] | 348 | 394 | 404

cell viability [%]
Conditions | [3] | [4] | [5]
HPLM + 10% dialyzed FBS, 0.000781 µM | 113 | 111 | 33.3
HPLM + 10% dialyzed FBS, 0.00234 µM | 117 | 111 | 74
HPLM + 10% dialyzed FBS, 0.00702 µM | 116 | 104 | 64.9
HPLM + 10% dialyzed FBS, 0.0211 µM | 112 | 122 | 77.8
HPLM + 10% dialyzed FBS, 0.0632 µM | 109 | 102 | 96.9
HPLM + 10% dialyzed FBS, 0.19 µM | 92.6 | 123 | 75.1
HPLM + 10% dialyzed FBS, 0.569 µM | 79.8 | 97.6 | 77.2
HPLM + 10% dialyzed FBS, 1.71 µM | 72 | 61.4 | 46.8
HPLM + 10% dialyzed FBS, 5.12 µM | 25.8 | 31.5 | 11.4
HPLM + 10% dialyzed FBS, 15.4 µM | 22.2 | 8.89 | 5.63
HPLM + 10% dialyzed FBS, 46.1 µM | 27 | 7.76 | 6.09
RPMI 5 mM glucose + 10% FBS, 0.000781 µM | 115 | 97.7 | 46
RPMI 5 mM glucose + 10% FBS, 0.00234 µM | 111 | 107 | 102
RPMI 5 mM glucose + 10% FBS, 0.00702 µM | 116 | 107 | 82.5
RPMI 5 mM glucose + 10% FBS, 0.0211 µM | 124 | 98 | 96.4
RPMI 5 mM glucose + 10% FBS, 0.0632 µM | 101 | 101 | 101
RPMI 5 mM glucose + 10% FBS, 0.19 µM | 85.3 | 112 | 88.3
RPMI 5 mM glucose + 10% FBS, 0.569 µM | 73.3 | 103 | 59.3
RPMI 5 mM glucose + 10% FBS, 1.71 µM | 59.3 | 106 | 44
RPMI 5 mM glucose + 10% FBS, 5.12 µM | 43.8 | 51.3 | 6.03
RPMI 5 mM glucose + 10% FBS, 15.4 µM | 12.9 | 24 | 4.36
RPMI 5 mM glucose + 10% FBS, 46.1 µM | 11.6 | 13.5 | 5.06
RPMI 5 mM glucose + 10% dialyzed FBS, 0.000781 µM | 108 | 103 | 39.2
RPMI 5 mM glucose + 10% dialyzed FBS, 0.00234 µM | 116 | 115 | 96.9
RPMI 5 mM glucose + 10% dialyzed FBS, 0.00702 µM | 113 | 97.2 | 79.2
RPMI 5 mM glucose + 10% dialyzed FBS, 0.0211 µM | 103 | 110 | 114
RPMI 5 mM glucose + 10% dialyzed FBS, 0.0632 µM | 97.1 | 117 | 118
RPMI 5 mM glucose + 10% dialyzed FBS, 0.19 µM | 86.3 | 119 | 92.6
RPMI 5 mM glucose + 10% dialyzed FBS, 0.569 µM | 66.6 | 123 | 86.1
RPMI 5 mM glucose + 10% dialyzed FBS, 1.71 µM | 53.8 | 108 | 50.4
RPMI 5 mM glucose + 10% dialyzed FBS, 5.12 µM | 39.4 | 70.9 | 17.9
RPMI 5 mM glucose + 10% dialyzed FBS, 15.4 µM | 18.7 | 36.7 | 8.47
RPMI 5 mM glucose + 10% dialyzed FBS, 46.1 µM | 14.8 | 19 | 8.64

Cc1cc2c(cc1C1(c3ccc(C(=O)O)cn3)CC1)C(C)(C)CCC2(C)C
AUC of viability dose-response curve
Conditions | [1] | [2] | [6]
HPLM + 10% dialyzed FBS | 433 | 371 | 458
RPMI 5 mM glucose + 10% FBS | 435 | 429 | 418
RPMI 5 mM glucose + 10% dialyzed FBS | 429 | 417 | 407

CN(C)CCCN1c2ccccc2CCc2ccc(Cl)cc21
AUC of viability dose-response curve
Conditions | HPLM + 10% dialyzed FBS | RPMI 5 mM glucose + 10% FBS | RPMI 5 mM glucose + 10% dialyzed FBS
[2] | 431 | 448 | 441
[6] | 453 | 453 | 452

Conditions | cell viability [%]
[3], RPMI 5 mM glucose + 10% dialyzed FBS, 0.000781 µM | 71
[3], RPMI 5 mM glucose + 10% dialyzed FBS, 0.00234 µM | 155
[3], RPMI 5 mM glucose + 10% dialyzed FBS, 0.00702 µM | 125
[3], RPMI 5 mM glucose + 10% dialyzed FBS, 0.0211 µM | 145
[3], RPMI 5 mM glucose + 10% dialyzed FBS, 0.0632 µM | 138
[3], RPMI 5 mM glucose + 10% dialyzed FBS, 0.19 µM | 134
[3], RPMI 5 mM glucose + 10% dialyzed FBS, 0.569 µM | 142
[3], RPMI 5 mM glucose + 10% dialyzed FBS, 1.71 µM | 142
[3], RPMI 5 mM glucose + 10% dialyzed FBS, 5.12 µM | 134
[3], RPMI 5 mM glucose + 10% dialyzed FBS, 15.4 µM | 125
[3], RPMI 5 mM glucose + 10% dialyzed FBS, 46.1 µM | 82.9
[5], HPLM + 10% dialyzed FBS, 0.000781 µM | 122
[5], HPLM + 10% dialyzed FBS, 0.00234 µM | 132
[5], HPLM + 10% dialyzed FBS, 0.00702 µM | 122
[5], HPLM + 10% dialyzed FBS, 0.0211 µM | 134
[5], HPLM + 10% dialyzed FBS, 0.0632 µM | 118
[5], HPLM + 10% dialyzed FBS, 0.19 µM | 122
[5], HPLM + 10% dialyzed FBS, 0.569 µM | 125
[5], HPLM + 10% dialyzed FBS, 1.71 µM | 122
[5], HPLM + 10% dialyzed FBS, 5.12 µM | 105
[5], HPLM + 10% dialyzed FBS, 15.4 µM | 109
[5], HPLM + 10% dialyzed FBS, 46.1 µM | 39.6

CCc1nc(-c2cccc(C)c2)c(-c2ccnc(NC(=O)c3ccccc3)c2)s1
AUC of viability dose-response curve
Conditions | [1] | [2] | [6]
HPLM + 10% dialyzed FBS | 449 | 461 | 463
RPMI 5 mM glucose + 10% FBS | 456 | 454 | 452
RPMI 5 mM glucose + 10% dialyzed FBS | 450 | 443 | 449

COc1ccc(Nc2nccc(NCCO)n2)cc1
AUC of viability dose-response curve
Conditions | HPLM + 10% dialyzed FBS | RPMI 5 mM glucose + 10% FBS | RPMI 5 mM glucose + 10% dialyzed FBS
[1] | 395 | 386 | 377
[6] | 331 | 376 | 375

cell viability [%]
Conditions | [3] | [4] | [5]
HPLM + 10% dialyzed FBS, 0.000781 µM | 73.7 | 75.3 | 61.7
HPLM + 10% dialyzed FBS, 0.00234 µM | 83.2 | 86.5 | 67.9
HPLM + 10% dialyzed FBS, 0.00702 µM | 82.1 | 84.9 | 61.4
HPLM + 10% dialyzed FBS, 0.0211 µM | 84.8 | 97.5 | 75.8
HPLM + 10% dialyzed FBS, 0.0632 µM | 88.2 | 86 | 81.4
HPLM + 10% dialyzed FBS, 0.19 µM | 85.2 | 96.7 | 69.6
HPLM + 10% dialyzed FBS, 0.569 µM | 81.9 | 88.8 | 63.7
HPLM + 10% dialyzed FBS, 1.71 µM | 81.5 | 99.5 | 78.6
HPLM + 10% dialyzed FBS, 5.12 µM | 76.7 | 74.5 | 64
HPLM + 10% dialyzed FBS, 15.4 µM | 89.5 | 84.9 | 75.4
HPLM + 10% dialyzed FBS, 46.1 µM | 80.8 | 22.7 | 64.7
RPMI 5 mM glucose + 10% FBS, 0.000781 µM | 72 | 72.7 | 75.9
RPMI 5 mM glucose + 10% FBS, 0.00234 µM | 81.3 | 86.4 | 80.1
RPMI 5 mM glucose + 10% FBS, 0.00702 µM | 79.4 | 73.6 | 78
RPMI 5 mM glucose + 10% FBS, 0.0211 µM | 86.8 | 83.5 | 87.4
RPMI 5 mM glucose + 10% FBS, 0.0632 µM | 89.8 | 79.6 | 77.1
RPMI 5 mM glucose + 10% FBS, 0.19 µM | 81.5 | 79.8 | 79
RPMI 5 mM glucose + 10% FBS, 0.569 µM | 76.8 | 79.6 | 78.3
RPMI 5 mM glucose + 10% FBS, 1.71 µM | 73.6 | 79 | 85.1
RPMI 5 mM glucose + 10% FBS, 5.12 µM | 79 | 15.8 | 42.1
RPMI 5 mM glucose + 10% FBS, 15.4 µM | 85 | 81.3 | 91.5
RPMI 5 mM glucose + 10% FBS, 46.1 µM | 85.3 | 91.8 | 92.9
RPMI 5 mM glucose + 10% dialyzed FBS, 0.000781 µM | 69 | 61.9 | 64.5
RPMI 5 mM glucose + 10% dialyzed FBS, 0.00234 µM | 76.7 | 63.7 | 65.3
RPMI 5 mM glucose + 10% dialyzed FBS, 0.00702 µM | 78 | 69.4 | 73.3
RPMI 5 mM glucose + 10% dialyzed FBS, 0.0211 µM | 81.5 | 73.9 | 95
RPMI 5 mM glucose + 10% dialyzed FBS, 0.0632 µM | 78.9 | 73.8 | 91.8
RPMI 5 mM glucose + 10% dialyzed FBS, 0.19 µM | 81.7 | 76.9 | 78.6
RPMI 5 mM glucose + 10% dialyzed FBS, 0.569 µM | 79.9 | 68.9 | 81.4
RPMI 5 mM glucose + 10% dialyzed FBS, 1.71 µM | 81.9 | 75.5 | 74.7
RPMI 5 mM glucose + 10% dialyzed FBS, 5.12 µM | 78.4 | 23.6 | 74.1
RPMI 5 mM glucose + 10% dialyzed FBS, 15.4 µM | 79.9 | 76.9 | 92.5
RPMI 5 mM glucose + 10% dialyzed FBS, 46.1 µM | 77.9 | 76.2 | 68.2
